Measurements as given in ChEMBL document CHEMBL1201862, “PubChem BioAssay data set” (2004).
Calls of active or inactive are those of the source.

What was measured:
[1] = target: Heat shock protein HSP 90-alpha (Homo sapiens, UniProt P07900); test: Luminescence-based dose response biochemical high throughput screening assay for inhibitors of the Heat Shock Protein 90 (HSP90). [Related pubchem assays: 1831 (Summary AID.), 1846 (Confirmation screen.), 1789 (Primary screen.)]
[2] = target: T1, Zinc finger protein mex-5 (Caenorhabditis elegans, UniProt Q9XUB2); test: MEX-5/TCR-2 RNA interaction inhibitors, dose response, biochemical, C. elegans, fluorescence polarization (AID 1960)
T1 sequence (Q9XUB2 whole entry): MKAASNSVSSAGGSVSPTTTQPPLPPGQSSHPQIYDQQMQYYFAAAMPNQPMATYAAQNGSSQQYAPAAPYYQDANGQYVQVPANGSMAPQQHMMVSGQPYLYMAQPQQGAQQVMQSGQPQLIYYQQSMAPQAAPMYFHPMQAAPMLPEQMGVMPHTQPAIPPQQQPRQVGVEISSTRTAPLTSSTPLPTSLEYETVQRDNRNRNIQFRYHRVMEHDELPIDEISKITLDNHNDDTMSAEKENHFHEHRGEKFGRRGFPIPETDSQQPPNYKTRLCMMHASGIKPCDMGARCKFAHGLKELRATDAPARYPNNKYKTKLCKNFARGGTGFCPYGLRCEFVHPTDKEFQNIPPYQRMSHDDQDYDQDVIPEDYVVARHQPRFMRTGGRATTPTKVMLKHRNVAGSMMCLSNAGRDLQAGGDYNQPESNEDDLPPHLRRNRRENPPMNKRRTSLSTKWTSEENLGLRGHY

[3] = target: T2, RNA-binding protein pos-1 (Caenorhabditis elegans, UniProt G5EF15); test: inhibitors of POS-1/mex-3 RNA binding, dose response, biochemical, fluorescence polarization (AID 1964);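 further: purified POS-1 fused to maltose binding protein made in E. coli; potency of compounds blocking POS-1 binding to fluorescent RNA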
T2 sequence (G5EF15 whole entry): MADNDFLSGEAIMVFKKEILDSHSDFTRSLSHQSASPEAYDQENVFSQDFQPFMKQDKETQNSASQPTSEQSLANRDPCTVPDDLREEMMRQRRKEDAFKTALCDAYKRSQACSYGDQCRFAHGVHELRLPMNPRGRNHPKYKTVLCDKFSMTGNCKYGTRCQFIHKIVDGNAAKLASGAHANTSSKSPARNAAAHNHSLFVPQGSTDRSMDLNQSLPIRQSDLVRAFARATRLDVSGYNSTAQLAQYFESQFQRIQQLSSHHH

[4] = target: T3, Acyl-homoserine lactone acylase PvdQ (Pseudomonas aeruginosa (strain LESB58), UniProt Q9I194); test: P. aeruginosa PvdQ acylase inhibitors, dose response, biochemical, fluorescence, plate reader and imaging, cherry-picks (AID 493231)
T3 sequence (Q9I194 whole entry): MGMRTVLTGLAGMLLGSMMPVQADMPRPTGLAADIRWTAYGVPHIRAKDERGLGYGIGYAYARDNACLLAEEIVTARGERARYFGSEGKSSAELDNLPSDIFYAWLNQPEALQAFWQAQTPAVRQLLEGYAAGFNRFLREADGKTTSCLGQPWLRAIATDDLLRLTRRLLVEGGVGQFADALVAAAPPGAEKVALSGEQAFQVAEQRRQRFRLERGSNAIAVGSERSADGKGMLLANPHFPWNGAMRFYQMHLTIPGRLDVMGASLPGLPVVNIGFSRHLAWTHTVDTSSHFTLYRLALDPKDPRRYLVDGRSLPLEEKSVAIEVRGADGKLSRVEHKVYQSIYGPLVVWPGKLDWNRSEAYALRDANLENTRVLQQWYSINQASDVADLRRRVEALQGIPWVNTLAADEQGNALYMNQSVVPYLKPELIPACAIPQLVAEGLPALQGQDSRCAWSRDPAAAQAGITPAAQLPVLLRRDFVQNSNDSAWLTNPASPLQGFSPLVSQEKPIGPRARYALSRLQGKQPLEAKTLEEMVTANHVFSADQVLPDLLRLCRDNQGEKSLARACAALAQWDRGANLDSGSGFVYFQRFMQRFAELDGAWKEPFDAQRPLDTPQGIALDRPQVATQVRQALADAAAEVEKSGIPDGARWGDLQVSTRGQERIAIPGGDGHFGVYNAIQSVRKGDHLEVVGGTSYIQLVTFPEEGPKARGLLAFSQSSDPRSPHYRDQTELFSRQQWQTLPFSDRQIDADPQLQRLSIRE

Cytochrome P450 3A4 = Cytochrome P450 3A4 (Homo sapiens, UniProt P08684); conditions: Potency;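 further: confirmatory qHTS run detecting inhibitors and substrates of CYP3A4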
Cytochrome P450 2C19 = Cytochrome P450 2C19 (Homo sapiens, UniProt P33261); test: qHTS Assay for Inhibitors and Substrates of Cytochrome P450 2C19. [Related pubchem assays: 410 ]; type: ADME; conditions: read-out: Potency
Cytochrome P450 2C9 = Cytochrome P450 2C9 (Homo sapiens, UniProt P11712); conditions: Potency
[5] = inhibitors of firefly luciferase expression or activity, dose response, H4 neuroglioma cells, luminescence (AID 1990); type: functional, cell-based
Transthyretin = Transthyretin (Homo sapiens, UniProt P02766); test: Luminescence-based cell-based high throughput dose response assay to identify activators of Transthyretin (TTR) transcription.; type: functional
[6] = inhibitors of SNCA 5'UTR-driven reporter translation, confirmation, H4 neuroglioma cells, luminescence (AID 1988); type: functional, cell-based
[7] = Luminescence Cell-Based Dose Response HTS to Identify Inhibitors of 5'UTR Stem-Loop Driven Prion Protein mRNA Translation in H4 Neuroglioblastoma Cells. [Related pubchem assays: 1827 (Project Summary), 1813 (Primary HTS)]; type: functional
[8] = ZM109 Env clade C HIV-1 fusion inhibitors, dose response, HeLa effector, CEM target cells, luciferase, cherry-pick (AID 652058); type: functional, cell-based
[9] = inhibitors of HIV Env-driven cell fusion, dose response, cherry-pick (AID 652057); type: functional, cell-based
[10] = CEM21 lymphoblast cell cytotoxicity, dose response, cytotoxicity control for viral fusion inhibitor project, CellTiter-Glo luminescence, cherry-picked (AID 652042); type: functional, cell-based;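 further: potency for signal decrease meaning cytotoxicity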
[11] = target: COUP transcription factor 2 (Homo sapiens, UniProt P24468); test: Luminescence-based cell-based high throughput dose response assay to identify inhibitors of COUP-TFII (NR2F2).; type: functional;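 further: HEK293 cells transiently cotransfected with COUP-TFII expression vector and reporter; luciferase reporter luminescence driven by COUP-TFII from the pX2-168 reporter plasmid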
[12] = off-target signal loss in HeLa-CEM21 co-culture – HeLa F-luc CTL cells, cherry-picked, counter-screen for HIV-1 Env fusion inhibitor project, dose response (AID 652040); type: functional, cell-based;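 further: potency for signal decrease marking cytotoxic or nonspecific inhibition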
[13] = inhibitors of clade B AD8 Env fusion, dose response, cell-based, cherry-pick (AID 652062); type: functional;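 further: luciferase signal from cell-cell fusion driven by HIV-1 clade B AD8 Env; potency is for inhibitors of fusion seen as a drop in luminescence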
[14] = inhibitors of intracellular T. cruzi replication, confirmation, NIH3T3 host cells, beta-gal luminescence (AID 2044); type: functional, cell-based;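 further: intracellular parasites grown in NIH/3T3 mouse fibroblasts as host cells; luminescent beta-galactosidase reporter signal from transgenic T. cruzi replicating inside host cells; inhibitors lower the luminescence signal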
[15] = cytotoxicity toward NIH3T3 fibroblasts, dose response, counter-screen, cell-based, ATP luminescence, mouse fibroblasts (AID 2010); type: functional;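 further: cells exposed to compound for about 90 hours before reading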
Prothrombin = Prothrombin (Homo sapiens, UniProt P00734); test: Thrombin 1536 HTS Dose Response Confirmation. [Related pubchem assays: 1046 (Thrombin 1536 HTS; hits were confirmed in this assay)]; type: functional
HEK293 = test: HEK293T cell cytotoxicity, dose response, cytotoxicity control, ATP luminescence, cherry-pick samples (AID 687005); type: functional, cell-based; conditions: Homo sapiens;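 further: cells exposed to compound for 48 hours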
[16] = HEK293 Cytotoxicity Assay Measured in Cell-Based System Using Plate Reader - 7071-01_Inhibitor_Dose_CherryPick_Activity_Set2.; type: functional
Protein skinhead-1 = target: T4, Protein skinhead-1 (Caenorhabditis elegans, UniProt P34707); type: functional
T4 sequence (P34707 whole entry): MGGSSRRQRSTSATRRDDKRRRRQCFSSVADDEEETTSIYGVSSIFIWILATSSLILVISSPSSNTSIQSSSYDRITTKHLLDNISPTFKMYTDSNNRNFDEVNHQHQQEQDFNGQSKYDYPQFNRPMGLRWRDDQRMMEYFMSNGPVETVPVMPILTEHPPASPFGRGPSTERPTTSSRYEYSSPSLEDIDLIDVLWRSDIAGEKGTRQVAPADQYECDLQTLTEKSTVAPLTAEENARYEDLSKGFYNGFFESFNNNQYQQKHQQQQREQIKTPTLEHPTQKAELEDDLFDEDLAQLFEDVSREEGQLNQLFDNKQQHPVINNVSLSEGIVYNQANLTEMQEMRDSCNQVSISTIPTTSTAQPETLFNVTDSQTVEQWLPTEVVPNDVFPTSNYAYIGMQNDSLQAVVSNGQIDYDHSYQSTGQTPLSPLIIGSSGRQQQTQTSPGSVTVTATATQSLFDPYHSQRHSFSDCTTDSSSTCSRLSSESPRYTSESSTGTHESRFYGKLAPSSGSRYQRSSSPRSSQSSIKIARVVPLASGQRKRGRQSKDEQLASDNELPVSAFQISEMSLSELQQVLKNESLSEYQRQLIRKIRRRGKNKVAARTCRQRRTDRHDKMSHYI

Sequence of Cytochrome P450 2C19 (P33261 whole entry): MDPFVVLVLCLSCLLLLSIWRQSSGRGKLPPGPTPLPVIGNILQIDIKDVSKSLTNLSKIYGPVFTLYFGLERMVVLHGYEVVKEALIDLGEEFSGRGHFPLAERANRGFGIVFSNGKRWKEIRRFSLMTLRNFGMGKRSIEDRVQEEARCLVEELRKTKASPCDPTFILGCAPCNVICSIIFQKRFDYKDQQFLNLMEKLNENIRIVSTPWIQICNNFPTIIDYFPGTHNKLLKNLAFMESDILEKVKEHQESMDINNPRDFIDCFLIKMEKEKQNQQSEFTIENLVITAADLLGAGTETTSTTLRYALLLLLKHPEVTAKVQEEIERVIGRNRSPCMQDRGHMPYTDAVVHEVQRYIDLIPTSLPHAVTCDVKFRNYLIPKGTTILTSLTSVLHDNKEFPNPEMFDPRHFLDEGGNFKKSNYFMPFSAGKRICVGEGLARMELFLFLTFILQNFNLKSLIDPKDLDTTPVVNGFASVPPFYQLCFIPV
Sequence of COUP transcription factor 2 (P24468 whole entry, the tested form may be a part): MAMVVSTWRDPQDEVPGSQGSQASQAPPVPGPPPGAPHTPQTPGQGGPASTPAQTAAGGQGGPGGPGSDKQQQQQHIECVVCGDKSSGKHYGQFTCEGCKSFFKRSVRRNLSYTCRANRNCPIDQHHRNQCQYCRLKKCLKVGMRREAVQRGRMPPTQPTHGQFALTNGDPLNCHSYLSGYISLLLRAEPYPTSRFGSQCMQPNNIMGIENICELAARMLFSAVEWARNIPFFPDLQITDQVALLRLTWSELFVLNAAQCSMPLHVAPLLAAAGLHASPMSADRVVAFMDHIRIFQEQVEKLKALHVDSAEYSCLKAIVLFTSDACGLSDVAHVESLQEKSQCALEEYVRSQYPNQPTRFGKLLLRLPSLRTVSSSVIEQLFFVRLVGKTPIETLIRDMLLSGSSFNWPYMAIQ
Sequence of Cytochrome P450 3A4 (P08684 whole entry): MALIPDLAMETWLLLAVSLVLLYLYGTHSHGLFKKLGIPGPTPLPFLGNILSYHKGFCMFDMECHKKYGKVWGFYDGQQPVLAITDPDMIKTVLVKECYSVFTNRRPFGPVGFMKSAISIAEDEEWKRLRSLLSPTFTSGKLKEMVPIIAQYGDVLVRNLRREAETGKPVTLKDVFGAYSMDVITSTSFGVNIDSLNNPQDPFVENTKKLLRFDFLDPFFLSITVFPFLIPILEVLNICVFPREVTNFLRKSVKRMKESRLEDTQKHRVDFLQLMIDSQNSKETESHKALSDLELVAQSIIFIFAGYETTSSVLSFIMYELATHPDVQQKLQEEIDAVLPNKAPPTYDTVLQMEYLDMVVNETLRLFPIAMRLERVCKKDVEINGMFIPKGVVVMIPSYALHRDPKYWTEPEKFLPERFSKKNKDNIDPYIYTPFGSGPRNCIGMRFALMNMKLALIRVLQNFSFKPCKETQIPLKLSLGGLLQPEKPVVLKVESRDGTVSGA
Sequence of Cytochrome P450 2C9 (P11712 whole entry): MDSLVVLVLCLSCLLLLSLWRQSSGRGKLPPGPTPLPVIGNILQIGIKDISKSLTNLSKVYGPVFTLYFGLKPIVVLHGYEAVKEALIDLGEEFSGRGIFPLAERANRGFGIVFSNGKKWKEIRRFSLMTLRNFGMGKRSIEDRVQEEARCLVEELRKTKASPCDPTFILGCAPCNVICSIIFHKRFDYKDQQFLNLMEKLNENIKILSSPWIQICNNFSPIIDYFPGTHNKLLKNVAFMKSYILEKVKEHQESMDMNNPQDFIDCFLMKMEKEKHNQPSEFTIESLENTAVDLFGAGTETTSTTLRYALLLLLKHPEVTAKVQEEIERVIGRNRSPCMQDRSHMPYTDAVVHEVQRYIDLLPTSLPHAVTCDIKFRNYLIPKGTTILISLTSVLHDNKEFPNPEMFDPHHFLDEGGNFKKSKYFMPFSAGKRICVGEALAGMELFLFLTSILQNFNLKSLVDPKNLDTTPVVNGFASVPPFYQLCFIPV

**Q.** Which IC50 [1] does the source give for `CCOC(=O)c1ccc(-c2ccc(C=O)o2)cc1` here?
**A.** 10.3 µM (not active)

**Q.** And the EC50 [2]?
**A.** > 300 µM (not active)

**Q.** What about the EC50 [3] of the same compound?
**A.** 43.6 µM (active)

**Q.** And the AC50 [4]?
**A.** 9.42 µM (active)

**Q.** Which results are given for `COC(=O)C/C=C/C(C)C(OCc1cccc(Br)c1)C(C)C(OC)C1CCCCC1` (configuration not stated)?
**A.** AC50 (Cytochrome P450 3A4): 3.98 µM (inconclusive); AC50 (Cytochrome P450 2C19): 5.01 µM (inconclusive)

**Q.** What does the source list for `Cc1ccc(/C=C/C2=CC3(C)CC2(C)C(c2ccc(C)cc2)CC3=O)cc1` (configuration not stated)?
**A.** AC50 (Cytochrome P450 2C9): 3.98 µM (inconclusive); AC50 (Cytochrome P450 2C19): 0.631 µM (inconclusive)

**Q.** For `COc1ccc(-c2cn3c(C)c(C(=O)Nc4cccc(C)n4)sc3n2)cc1`, which IC50 [1] is on record?
**A.** 0.327 µM (active)

**Q.** Which results are given for `Cc1ccc(CNC(=O)Cc2ccc(-c3ccccc3)cc2)cc1`?
**A.** EC50 [5]: > 120 µM (not active); EC50 (Transthyretin): > 167 µM (inactive); EC50 [6]: 6.89 µM (active); EC50 [7]: 10.4 µM (active)

**Q.** For `Cc1cccc(Nc2nc(-c3c(C)nc4ccccn34)cs2)c1`, which AC50 [8] is on record?
**A.** 7.64 µM (active)

**Q.** And the AC50 [9]?
**A.** 6.19 µM (active)

**Q.** What about the AC50 [10] of the same compound?
**A.** 29.6 µM (active)

**Q.** And the IC50 [11]?
**A.** 8.41 µM (active)

**Q.** And the AC50 [12]?
**A.** 2.7 µM (active)

**Q.** And the AC50 [13]?
**A.** 7.63 µM (active)

**Q.** With `CCOc1ccc(CNCCc2ccc3c(c2)OCO3)cc1` as the compound, how does the EC50 [14] read?
**A.** < 0.1 µM (active)

**Q.** What about the EC50 [15] of the same compound?
**A.** > 60 µM (not active)

**Q.** What about the EC50 (cells) of the same compound?
**A.** 0.496 µM (active)

**Q.** For `CC(=O)N1c2ccccc2N2C(c3c(C)c(C)cc(C)c3C)=NON12`, which IC50 (Prothrombin) is on record?
**A.** 3.37 µM (active)

**Q.** With `CC(NC(=O)COc1ccccc1-c1ccccc1)c1ccccc1` (configuration not stated) as the compound, how does the AC50 (HEK293) read?
**A.** 35.9 µM (active)

**Q.** What about the AC50 [16] of the same compound?
**A.** 35.9 µM (active)

**Q.** With `CC(C)OCCCn1c(=S)[nH]c2cc3c(cc2c1=O)OCO3` as the compound, how does the IC50 (Prothrombin) read?
**A.** > 50 µM (not active)

**Q.** What about the IC50 (Protein skinhead-1) of the same compound?
**A.** > 100 µM (inactive)
